# Measured values as given in patent publication US20260256792A1, “TREATMENT OF CHRONIC SPONTANEOUS URTICARIA BY ADMINISTERING (R)-2-[3-[4-AMINO-3-(2-FLUORO-4-PHENOXY-PHENYL)PYRAZOLO[3,4-D]PYRIMIDIN-1-YL]PIPERIDINE-1-CARBONYL]-4-METHYL-4-[4-(OXETAN-3-YL)PIPERAZIN-1-YL]PENT-2-ENENITRILE” (priority 2023, published 2026).
# System: moderate-to-severe chronic spontaneous urticaria (CSU)
# Assay: Phase 2 CSU study: urticaria activity score over 7 days (UAS7)
# Format: in vivo, human
# Design: key to UAS7 Median / UAS7 Change from baseline Median / UAS7 change from baseline, Q1 / UAS7 change from baseline, Q3 / UAS7 change from baseline, Max / UAS7 Change from baseline LS Mean (SE): UAS7 points; daily UAS score ranges 0–6 points/day, over 7 days
# Text: The study comprises a 12 week, randomized, double-blind, placebo-controlled, multi-center, dose-ranging efficacy and safety phase, followed by a 40 week open label extension (OLE) phase (see FIG. 1). The study consists of three phases and an optional OLE phase. […] Clinically, CSU is characterized by the spontaneous and recurrent appearance of pruritic hives. The proposed primary endpoints were the UAS7 at Week 12 in EU and EU reference countries and the ISS7 in the US. Regardless of where a participant was from, all assessments were the same. The UAS7 score is a composite score containing both the HSS7 and the ISS7. This allowed a global assessment of the two key components of urticaria: hives and itch. […] The UAS is a validated PRO measure. […] The daily UAS scores range from 0 to 6 point/day. […] Patients were to complete the UAS using the e-diary. […] The following secondary endpoints were to be analyzed using the same approach as for the primary endpoint: • Change from baseline in UAS7 at Week 4 • Change from baseline in UAS7 at Week 12 (for US and US reference countries) • Change from baseline in ISS7 at Week 12 (except US and US reference countries) • Change from baseline in HSS7 at Week 12 The following responder secondary endpoints were to be analyzed using the Cochran-Mantel-Haenszel test adjusted by region: • Proportion of participants with UAS7<6 at Week 12 • Proportion of participants with UAS7=0 at Week 12 Participants who received selected prohibited medications and/or rescue medications were to be considered as non-responders for time points after the medication usage. For other participants, all available data including those collected during the off-treatment period were to be used to determine the responder/non-responder status. Missing data were to be considered as non-responders.
# [1] = Week 1, 400 mg QPM, Prior Omalizumab Use
# [2] = Week 1, 400 mg QPM, omalizumab-naive participants
# [3] = Week 1, 400 mg TID, ITT population
# [4] = Week 1, 400 mg TID, Omalizumab-Naïve
# [5] = Week 1, 400 mg TID, Prior Omalizumab Use
# [6] = Week 1, 400 mg TID, omalizumab-naive participants
# [7] = Week 2, 400 mg BID, ITT population
# [8] = Week 2, 400 mg BID, Omalizumab-Naïve
# [9] = Week 2, 400 mg BID, Prior Omalizumab Use
# [10] = Week 2, 400 mg BID, omalizumab-naive participants
# [11] = Week 2, 400 mg QPM, ITT population
# [12] = Week 2, 400 mg QPM, Omalizumab-Naïve
# [13] = Week 2, 400 mg QPM, Prior Omalizumab Use
# [14] = Week 2, 400 mg QPM, omalizumab-naive participants
smiles,measurement,setting,value
"CC(C)(C=C(C#N)C(=O)N1CCC[C@@H](n2nc(-c3ccc(Oc4ccccc4)cc3F)c3c(N)ncnc32)C1)N1CCN(C2COC2)CC1 [rilzabrutinib, (R)-2-[3-[4-amino-3-(2-fluoro-4-phenoxy-phenyl)pyrazolo[3,4-d]pyrimidin-1-yl]piperidine-1-carbonyl]-4-methyl-4-[4-(oxetan-3-yl)piperazin-1-yl]pent-2-enenitrile]",UAS7 Percent change from baseline Mean (SD),[1],−39.02 (NC) %
same,UAS7 Percent change from baseline Median,[1],−39.02%
same,"Non-responder, UAS7 reduction from baseline of 10 points or more",[2],26 (70.3) n (%)
same,"OR for rilzabrutinib vs. placebo, UAS7 reduction of 10 points or more",[2],1.510
same,"RRD (%) for rilzabrutinib vs. placebo, UAS7 reduction of 10 points or more",[2],8.2 %
same,"Responder, UAS7 reduction from baseline of 10 points or more",[2],11 (29.7) n (%)
same,"Non-responder, UAS7 reduction from baseline of 10 points or more",[3],18 (43.9) n (%)
same,"OR for rilzabrutinib vs. placebo, UAS7 reduction of 10 points or more",[3],4.196
same,"RRD (%) for rilzabrutinib vs. placebo, UAS7 reduction of 10 points or more",[3],32.5 %
same,"Responder, UAS7 reduction from baseline of 10 points or more",[3],23 (56.1) n (%)
same,UAS7 Change from baseline Mean (SD),[4],−11.57 (10.61)
same,UAS7 Change from baseline Median,[4],−10.00
same,UAS7 Mean (SD),[4],17.77 (10.26)
same,UAS7 Median,[4],18.00
same,UAS7 Percent change from baseline Mean (SD),[4],−38.05 (33.56) %
same,UAS7 Percent change from baseline Median,[4],−30.95%
same,UAS7 Change from baseline Mean (SD),[5],−20.86 (9.80)
same,UAS7 Change from baseline Median,[5],−21.00
same,UAS7 Mean (SD),[5],12.17 (8.54)
same,UAS7 Percent change from baseline Mean (SD),[5],−63.75 (22.12) %
same,UAS7 Percent change from baseline Median,[5],−69.05%
same,"Non-responder, UAS7 reduction from baseline of 10 points or more",[6],17 (48.6) n (%)
same,"OR for rilzabrutinib vs. placebo, UAS7 reduction of 10 points or more",[6],3.580
same,"RRD (%) for rilzabrutinib vs. placebo, UAS7 reduction of 10 points or more",[6],28.5 %
same,"Responder, UAS7 reduction from baseline of 10 points or more",[6],18 (51.4) n (%)
same,"Non-responder, UAS7 reduction from baseline of 10 points or more",[7],19 (46.3) n (%)
same,"OR for rilzabrutinib vs. placebo, UAS7 reduction of 10 points or more",[7],3.388
same,"RRD (%) for rilzabrutinib vs. placebo, UAS7 reduction of 10 points or more",[7],27.8 %
same,"Responder, UAS7 reduction from baseline of 10 points or more",[7],22 (53.7) n (%)
same,UAS7 Change from baseline Mean (SD),[8],−10.10 (8.61)
same,UAS7 Change from baseline Median,[8],−10.00
same,UAS7 Mean (SD),[8],19.59 (10.86)
same,UAS7 Median,[8],18.10
same,UAS7 Percent change from baseline Mean (SD),[8],−35.50 (31.03) %
same,UAS7 Percent change from baseline Median,[8],−35.71%
same,UAS7 Change from baseline Mean (SD),[9],−14.00 (14.98)
same,UAS7 Change from baseline Median,[9],−10.00
same,UAS7 Mean (SD),[9],19.00 (13.67)
same,UAS7 Median,[9],23.00
same,UAS7 Percent change from baseline Mean (SD),[9],−40.50 (43.43) %
same,UAS7 Percent change from baseline Median,[9],−27.44%
same,"Non-responder, UAS7 reduction from baseline of 10 points or more",[10],17 (48.6) n (%)
same,"OR for rilzabrutinib vs. placebo, UAS7 reduction of 10 points or more",[10],3.686
same,"RRD (%) for rilzabrutinib vs. placebo, UAS7 reduction of 10 points or more",[10],28.9 %
same,"Responder, UAS7 reduction from baseline of 10 points or more",[10],18 (51.4) n (%)
same,"Non-responder, UAS7 reduction from baseline of 10 points or more",[11],23 (60.5) n (%)
same,"OR for rilzabrutinib vs. placebo, UAS7 reduction of 10 points or more",[11],2.169
same,"RRD (%) for rilzabrutinib vs. placebo, UAS7 reduction of 10 points or more",[11],16.6 %
same,"Responder, UAS7 reduction from baseline of 10 points or more",[11],15 (39.5) n (%)
same,UAS7 Change from baseline Mean (SD),[12],−7.67 (8.84)
same,UAS7 Change from baseline Median,[12],−5.00
same,UAS7 Mean (SD),[12],23.44 (8.97)
same,UAS7 Median,[12],23.00
same,UAS7 Percent change from baseline Mean (SD),[12],−23.23 (26.34) %
same,UAS7 Percent change from baseline Median,[12],−16.67%
same,UAS7 Change from baseline Mean (SD),[13],−19.00 (NC)
same,UAS7 Change from baseline Median,[13],−19.00
same,UAS7 Mean (SD),[13],22.00 (NC)
same,UAS7 Median,[13],22.00
same,UAS7 Percent change from baseline Mean (SD),[13],−46.34 (NC) %
same,UAS7 Percent change from baseline Median,[13],−46.34%
same,"Non-responder, UAS7 reduction from baseline of 10 points or more",[14],23 (62.2) n (%)
same,"OR for rilzabrutinib vs. placebo, UAS7 reduction of 10 points or more",[14],2.174
same,"RRD (%) for rilzabrutinib vs. placebo, UAS7 reduction of 10 points or more",[14],16.6 %
same,"Responder, UAS7 reduction from baseline of 10 points or more",[14],14 (37.8) n (%)
same,"Non-responder, UAS7 reduction from baseline of 10 points or more","Week 2, 400 mg TID, ITT population",13 (31.7) n (%)
